Columns and labels:
[1] = test system: PER1, BMAL1, CRY1, CLOCK, MT1 and MT2; experiment: FACS analysis of clock proteins and MT1/MT2 in large mouse cholangiocyte lines; format: cell-based; conditions: in vitro melatonin vs. basal value
Description: (i) in paraffin-embedded liver sections ([…]) from normal and BDL control rats by immunohistochemistry ([…] al., 2009); and (ii) in total RNA (1 μg, by real-time PCR) (Francis et al., 2008) from purified cholangiocytes. […] FACS analysis was performed as described (Onori et al., 2010) using a C6 flow cytometer and analyzed by CFlow Software (Accuri Cytometers Inc. Ann Arbor, Mich.). At least 10,000 events in the light-scatter (SSC/FSC) were acquired. The expression of the selected protein was identified and gated on FL1-A/Count plots. The relative quantity of the selected protein (mean selected protein fluorescence) was expressed as mean FL1-A (samples)/mean FL-1A (secondary antibodies only).

miR-141 = experiment: miRNA microarray expression profiling in BDL rat liver; conditions: reduced in BDL; after melatonin treatment in vivo
Text: Background: microRNAs (miRNAs) are small non-coding RNAs that have been implicated in the pathology of cholestatic liver injuries. After bile duct ligation (BDL), there is enhanced biliary proliferation and intrahepatic bile duct mass (IBDM). The inventors have previously shown that: i) cholangiocytes produce melatonin and express Clock genes and that ii) melatonin inhibits in vitro and in vivo the growth of cholangiocytes and cholangiocarcinoma cell lines by modulation of the CLOCK genes. Thus, in certain aspects miRNA regulates the expression of CLOCK genes and subsequently alters the proliferation of cholangiocytes after BDL. Methods: miRNA expression in normal and BDL rat liver was evaluated using hybridization based microRNA microarray. Mouse cholangiocytes (NMCs) were used for the experiments in vitro. mRNA expression was quantitated by real-time PCR analysis and protein expression was detected by Western blot. Results: […] Bioinformatics and dual-luciferase reporter assays identified Clock and cryptochrome 1 (Cry1), a blue light-dependent regulator of the circadian feedback loop, as the direct targets of miR-141. […] Targeting of […] during cholestatic liver injuries provides an important therapeutic strategy in the regulation of cholangiocytes proliferation through the regulation of Clock and Cry 1 expression.

[2] = H&E evaluation of organ damage in melatonin-treated rats; format: in vivo, rat; conditions: normal and BDL rats treated with melatonin
Description: The following was also evaluated in paraffin-embedded liver sections ([…]): (i) lobular necrosis; (ii) the intrahepatic bile duct mass (IBDM) of large ([…]) (Alpini et al., 1997; Glaser et al., 2009) cholangiocytes, the only biliary cell types proliferating following BDL (Alpini et al., 1998; Glaser et al., 2009) and (iii) the percentage of cholangiocyte apoptosis by semiquantitative terminal deoxynucleotidyltransferase biotin-dUTP nick-end labeling (TUNEL) kit (Apoptag; Chemicon International, Inc.) (Glaser et al., 2010). Lobular necrosis was measured in liver sections stained for hematoxylin and eosin (Glaser et al., 2010). Lobular necrosis was scored as follows: −=0 foci; +/−=<2 foci; +=2-4 foci; and ++=>4 foci (Glaser et al., 2010). The IBDM was measured as area occupied by CK-19 positive-bile duct/total area×100 (Glaser et al., 2010). It was also evaluated by H&E of sections if melatonin administration induces the damage of kidney, heart, stomach, spleen and small and large intestine of normal and BDL rats. The sections from the selected were evaluated in a blinded-fashion by two board-certified pathologists by a BX-51 light microscope (Olympus, Tokyo, Japan) equipped with a camera.

large cholangiocytes = experiment: Bile duct mass, PCNA-positive cholangiocytes and apoptosis (TUNEL) in liver sections; format: in vivo, rat
Description: Male 344 Fischer rats (150-175 g) were purchased from Charles River (Wilmington, Mass.) and kept in a temperature-controlled environment (22° C.) with 12:12 hr light/dark cycles. Animals were fed ad libitum and had free access to food and drinking water. […] Before each surgical procedure, animals were anesthetized with sodium pentobarbital (50 mg/kg BW, IP). All animal experiments were performed in accordance with a protocol approved by the Scott and White and Texas A&M Health Science Center Institutional Animal Care and Use Committee and conform to the Guide for the Care and Use of Laboratory Animals published by the US National Institutes of Health (NIH Publication No. 85-23, revised 1996). In all animals, wet liver weight, body weight, wet liver weight to body weight ratio, and an index of liver cell growth including cholangiocytes were measured ([…] et al., 1988). The following was also evaluated in paraffin-embedded liver sections ([…]): (i) lobular necrosis; (ii) the intrahepatic bile duct mass (IBDM) of large (>[…]) ([…] et al., 1997; Glaser et al., 2009) cholangiocytes, the only biliary cell types proliferating following […] et al., 1998; Glaser et al., 2009) and (iii) the percentage of cholangiocyte apoptosis by semiquantitative terminal deoxynucleotidyltransferase biotin-dUTP nick-end labeling (TUNEL) kit (Apoptag; Chemicon International, Inc.) (Glaser et al., 2010). Lobular necrosis was measured in liver sections stained for hematoxylin and eosin (Glaser et al., 2010). […] The IBDM was measured as area occupied by CK-19 positive-bile duct/total area×100 (Glaser et al., 2010). It was also evaluated by H&E of sections if melatonin administration induces the damage of kidney, heart, stomach, spleen and small and large intestine of normal and BDL rats. The sections from the selected were evaluated in a blinded-fashion by two board-certified pathologists by a BX-51 light microscope (Olympus, Tokyo, Japan) equipped with a camera.

[3] = BDL rats vs. corresponding control rats

With `COc1ccc2[nH]cc(CCNC(C)=O)c2c1` [melatonin] as the compound, how does the “Expression of MT1 and MT2 (FACS)” value [1] read?
Its value is “decreased”.

And the “Expression of PER1, BMAL1, CRY1 and CLOCK (FACS)” value [1]?
Its value is “decreased”.

And the “miR-141 expression in BDL rat liver” value (miR-141)?
Its value is “recovered”.

What about the “Morphological damage of kidney, heart, stomach, spleen and small and large intestine” value [2] of the same compound?
Its value is “No morphological damage”.

What about the Cholangiocyte apoptosis (large cholangiocytes; BDL rats) of the same compound?
Its Cholangiocyte apoptosis is “enhanced”.

What about the “Large BDM (bile duct mass)” value (large cholangiocytes; [3]) of the same compound?
Its value is “decreased”.

And the “Percentage of PCNA-positive large cholangiocytes” value (large cholangiocytes; [3])?
The value was “decreased”.

And the “Effects on bile duct mass, PCNA-positive cholangiocytes and apoptosis” value (large cholangiocytes; normal rats)?
The value was “no effects”.
